{"source": "patent US9808505B2", "about": "“Suppression of malignant mesothelioma by overexpression or stimulation of endothelial protein C receptors (EPCR)” (BOARD OF REGENTS, THE UNIVERSITY OF TEXAS SYSTEM, priority 2013, dated 2017)", "type_in_all_cases": "cell-based, human", "key": {"[1]": {"test_system": "REN MPM cells", "test": "Measurement of cytosolic Ca2+ release (Fluo-4 fluorescence microscopy)", "conditions": "peptide 50 μM (FIG. 1E)", "protocol": "Fluorescence microscopy was used for measurement of cytosolic Ca^2+ release as described earlier (34). MPM cells were seeded in 8-well chambered cover slips (Nunc, Rochester, N.Y.) at a density of 10,000 cells/well. After 24 h, cells were washed and incubated with 4 μM Fluo-4/AM Ester (Molecular Probes, Inc, Eugene, Oreg.) for 1 h in buffer B in a humidified atmosphere of 37° C./5% CO2. The cells were then washed with buffer B, and a chambered cover slip was placed on the stage of an inverted microscope (Axio Observer Z1) encased in an incubation chamber that maintained 37° C./5% CO2. Live images of cell fluorescence were recorded by exciting the Fluo-4 probe with 488 nm light and monitoring 530 nm emission using Carl Zeiss LSM 510 Meta Confocal Laser Scanning system. After 15 sec of image acquisition, PAR1 agonist peptide […]; SEQ ID NO:10)) or PAR2 agonist peptide (SLIGRL; (SEQ ID NO:11)) was added to the cells at a final concentration of 50 μM and the recording was continued for an additional 165 sec. Results are represented as change in fluorescence intensity over time."}, "[2]": {"test_system": "REN MPM cells", "test": "Cell proliferation assay (BrdU incorporation) in MPM cells", "conditions": "for difference in cell proliferation between REN and REN(+EPCR): in vitro, presence or absence of ligand, FVIIa 10 nM, APC 20 nM, thrombin 10 nM, 24 h; for cell proliferation of REN cells in response to ligand (in words): wild-type REN cells in vitro, 10 nM ligand in SFM, 24 h (FIG. 8)", "protocol": "Cell proliferation assay in MPM cells in the presence or absence of various ligands was performed using Apo-BrdU cell proliferation assay kit from Millipore (Temecula, Calif.) following the manufacturer's instructions. Briefly, MPM cells (7,500 cells/well) were seeded in 96-well plates in RPMI medium containing 10% FBS, and after 24 h the cells were washed once and maintained in serum-free medium (SFM). After 24 h, the cells were washed once with SFM and incubated with SFM or SFM containing FVIIa, APC, thrombin or serum (1%) for 24 h. Twenty μl of BrdU-labeling solution was added to each well 8 h prior to the completion of 24 h incubation with the test compound. The cells were fixed and processed for detection of BrdU incorporation by incubating the cells with an anti-BrdU antibody, followed by peroxidase-conjugated secondary antibody and then the substrate tetramethyl-benzidine with three washings in between each step. The color developed in the assay was measured as absorbance at 450 nm using the absorbance measured at 650 nm as a reference value in a microplate reader (Molecular Devices, Sunnyvale, Calif.)."}, "[3]": {"test_system": "REN MPM cells", "test": "Elaboration of proangiogenic factors on exposure to FVIIa", "conditions": "REN MPM cells in response to FVIIa", "protocol": "To assess whether TF promotes tumor growth in MPM through elaboration of proangiogenic factors by direct signaling (as observed in breast cancer cells (38, 39)), studies were conducted here to examine whether exposure of REN MPM cells to FVIIa increased production of proangiogenic factors in these cells. […] Thus, it seems unlikely that TF-FVIIa-PAR1-mediated cell signaling promotes MPM tumor growth through elaboration of proangiogenic factors as previously speculated for promotion of tumor growth in breast cancer (21)."}}, "data": [{"molecule": "SLIGRL [PAR2 agonist peptide]", "values": [{"measurement": "intracellular Ca2+ release", "setting": "[1]", "value": "not"}]}, {"molecule": "TFLLRNPNDK [PAR1 agonist peptide]", "values": [{"measurement": "intracellular Ca2+ release", "setting": "[1]", "value": "induced intracellular Ca^2+ release"}]}, {"molecule": "thrombin", "values": [{"measurement": "thrombin-induced cell proliferation in PAR1 knock-down cells", "setting": "[2]; REN cells with PAR1 knock-down (REN-P1KD)", "value": "diminished"}, {"measurement": "difference in cell proliferation between REN and REN(+EPCR)", "setting": "[2]", "value": "no measurable differences"}, {"measurement": "cell proliferation of REN cells in response to ligand (in words)", "setting": "[2]", "value": "modest increase"}]}, {"molecule": "FVIIa: Recombinant human FVIIa from Novo Nordisk; clotting factor that initiates coagulation upon binding to TF (protein) ANAFLEELRPGSLERECKEEQCSFEEAREIFKDAERTKLFWISYSDGDQCASSPCQNGGSCKDQLQSYICFCLPAFEGRNCETHKDDQLICVNENGGCEQYCSDHTGTKRSCRCHEGYSLLADGVSCTPTVEYPCGKIPILEKRNASKPQGRIVGGKVCPKGECPWQVLLLVNGAQLCGGTLINTIWVVSAAHCFDKIKNWRNLIAVLGEHDLSEHDGDEQSRRVAQVIIPSTYVPGTTNHDIALLRLHQPVVLTDHVVPLCLPERTFSERTLAFVRFSLVSGWGQLLDRGATALELMVLNVPRLMTQDCLQQSRKVGDSPNITEYMFCAGYSDGSKDSCKGDSGGPHATHYRGTWYLTGIVSWGQGCATVGHFGVYTRVSQYIEWLQKLMRSEPRPGVLLRAPFP", "values": [{"measurement": "FVIIa-induced increase in cell proliferation in TF knock-down cells", "setting": "[2]; REN cells with TF knock-down (REN-TFKD)", "value": "abrogated"}, {"measurement": "difference in cell proliferation between REN and REN(+EPCR)", "setting": "[2]", "value": "no measurable differences"}, {"measurement": "increase in rate of cell proliferation", "setting": "[2]; naïve REN MPM cells, addition of FVIIa", "value": "about 70%"}, {"measurement": "cell proliferation of REN cells in response to ligand (in words)", "setting": "[2]", "value": "modestly but consistently"}, {"measurement": "elaboration of proangiogenic factors, including IL-8, CCN1 and CCN2", "setting": "[3]", "value": "robust or reproducible elaboration"}]}]}
